Results taken from patent US20220089609A1, “SUBSTITUTED QUINAZOLINONE DERIVATIVES AND THEIR USE AS POSITIVE ALLOSTERIC MODULATORS OF MGLUR4” (DOMAIN THERAPEUTICS, priority 2018, published 2022).
Several values for one entry are separate records, joined by “and”; a condition that tells them apart may be missing. Equal values may be shown once. Where a name gives a salt, the structure may show the parent alone.

These compounds were tested against T1, human mGluR4 (hmGluR4) (Homo sapiens, UniProt Q14833) (assay: Calcium assay EC50 determination, positive allosteric modulator activity on hmGluR4 transiently over-expressed in HEK-293 cells). Conditions: PAM mode with EC20 glutamate; hmGluR4 in HEK-293 cells; intracellular calcium (Fluo4AM); read-out: mGluR4 positive allosteric modulator activity, half maximal effective concentration (EC50).
T1 construct: expressed in transfected cells; host or cells: HEK-293 cells, transient co-transfection by electroporation
T1 sequence (Q14833 33-912): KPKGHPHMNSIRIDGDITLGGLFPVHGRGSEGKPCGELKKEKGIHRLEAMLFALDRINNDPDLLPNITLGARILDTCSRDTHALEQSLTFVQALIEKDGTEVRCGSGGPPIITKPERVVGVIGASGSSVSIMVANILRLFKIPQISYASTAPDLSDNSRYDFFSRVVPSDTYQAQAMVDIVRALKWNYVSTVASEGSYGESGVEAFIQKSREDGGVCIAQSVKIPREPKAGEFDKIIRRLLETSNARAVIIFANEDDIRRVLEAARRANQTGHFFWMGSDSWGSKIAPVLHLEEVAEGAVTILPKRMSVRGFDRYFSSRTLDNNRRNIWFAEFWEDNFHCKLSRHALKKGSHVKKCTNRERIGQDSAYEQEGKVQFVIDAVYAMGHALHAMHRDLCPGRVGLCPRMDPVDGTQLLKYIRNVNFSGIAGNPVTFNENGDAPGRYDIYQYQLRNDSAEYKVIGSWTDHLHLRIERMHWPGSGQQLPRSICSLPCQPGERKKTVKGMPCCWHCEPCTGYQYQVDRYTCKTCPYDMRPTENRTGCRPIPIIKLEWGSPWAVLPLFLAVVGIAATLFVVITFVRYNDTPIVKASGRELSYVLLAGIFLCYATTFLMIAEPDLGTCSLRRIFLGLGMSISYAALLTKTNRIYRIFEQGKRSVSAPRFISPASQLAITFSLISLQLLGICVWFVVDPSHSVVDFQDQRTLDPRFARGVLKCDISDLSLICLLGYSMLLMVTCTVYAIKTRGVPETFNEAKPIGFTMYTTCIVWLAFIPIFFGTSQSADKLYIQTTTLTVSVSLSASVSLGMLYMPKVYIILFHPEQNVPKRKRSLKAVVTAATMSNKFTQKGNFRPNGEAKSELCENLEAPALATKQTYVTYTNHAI
Format: cell-based
Method: Compounds are tested successively for their agonist and positive allosteric modulator activities on human mGluR4 (hmGluR4) transiently over-expressed in HEK-293 cells. Compounds exert agonist activity if, by themselves in absence of glutamate, they are able to activate hmGluR4; and they exert positive allosteric modulator activity if they increase the action of glutamate.
HEK-293 cells are maintained in Modified Eagle's Medium supplemented with 10% Foetal Calf Serum, 1% Penicillin/Streptomycin and 1% non-essential amino acids at 37° C./5% CO2.
Cells are co-transfected by electroporation with four DNA plasmids encoding hmGluR4, a chimeric G protein allowing redirection of the activation signal to intracellular calcium pathway, and glutamate transporters to decrease extracellular glutamate concentration so as to limit receptor desensitization. After transfection, cells are cultured for 24 h at 37° C./5% CO2.
Calcium Assay EC50 determination
Receptor activity is detected by changes in intracellular calcium measured using the fluorescent Ca^2+ sensitive dye, Fluo4AM (Molecular Probes).
On the day of the assay, culture medium is aspirated and replaced during 3 hours by medium without serum supplemented with 1% Glutamax, 1% Penicillin/Streptomycin and 1% non-essential amino acids. Then, cells are washed with freshly prepared buffer B (HBSS 1× (PAA), Hepes 20 mM, MgSO4-7H2O 1 mM, Na2CO3 3.3 mM, CaCl2-2H2O 1.3 mM, 0.1% BSA, Probenecid 2.5 mM) and loaded at 37° C. in 5% CO2 for 1.5 hours with buffer B containing 1 μM Fluo4AM, 0.1 mg/mL Pluronic Acid, 7 μg/mL Glutamate Pyruvate Transaminase and 2 mM sodium pyruvate. Afterwards cells are washed twice with buffer B. Then cells are detached using StemPro Accutase (Fisher Scientific), resuspended in buffer B and seeded in 384 well plate at a density of 30,000 cells per well. Addition of compounds and intracellular Ca^2+ measurements (excitation 485 nm, emission 525 nm) are performed by the fluorescence microplate reader FLIP^Tetra (Molecular Devices).
Agonist and positive allosteric modulator activities of compounds are consecutively evaluated on the same cell plate. Agonist activity is first tested during 10 minutes with the addition of compound alone on the cells. Then, cells are stimulated by an EC20 glutamate concentration and fluorescence is recorded for additional 3 minutes. EC20 glutamate concentration is the concentration giving 20% of the maximal glutamate response. Agonist or positive allosteric modulator activity(ies) are evaluated in comparison to basal signals evoked by buffer B or EC20 glutamate alone, respectively.

Q: `Cc1cc(OC2CCC(=O)N(C)C2)cc2c(=O)[nH]c(-c3cc4ccsc4cn3)nc12` (single isomer, unassigned) [Compound 81-E1, (R or S)-8-Methyl-6-((1-methyl-6-oxopiperidin-3-yl)oxy)-2-(thieno[2,3-c]pyridin-5-yl)quinazolin-4(3H)-one] was tested. Which EC50 did it give?
A: The EC50 was at most 100 nM.

Q: How did the EC50 turn out when `CCC(=O)N1CC[C@H](Oc2cc(C)c3nc(-c4cc5ccsc5cn4)[nH]c(=O)c3c2)C1` (stereo in doubt) [Compound 82-R, R-8-Methyl-6-(1-propionyl-pyrrolidin-3-yloxy)-2-thieno[2,3-c]pyridin-5-yl-3H-quinazolin-4-one] was run?
A: The EC50 was 100 to 1000 nM.

Q: `Cl.O=c1[nH]c(-c2cc3ccsc3cn2)nc2ccc(OCCCc3ccncc3)cc12` [Compound 4, hydrochloride] was tested. Which EC50 did it give?
A: Its EC50 is 100 to 1000 nM.

Q: With `Cc1ccnc(-c2nc3ccc(OCCCc4ccncc4)cc3c(=O)[nH]2)c1` [Compound 11, 2-(4-methyl-2-pyridyl)-6-[3-(4-pyridyl)propoxy]-3H-quinazolin-4-one dihydrochloride] as the compound, how does the EC50 read?
A: Its EC50 is 100 to 1000 nM.

Q: With `Cc1cccc(-c2nc3ccc(OCCCc4ccncc4)cc3c(=O)[nH]2)n1` [Compound 12, 2-(6-methyl-2-pyridyl)-6-[3-(4-pyridyl)propoxy]-3H-quinazolin-4-one dihydrochloride] as the compound, how does the EC50 read?
A: Its EC50 is 100 to 1000 nM.

Q: `Cc1cnc(-c2nc3ccc(OCCCc4ccncc4)cc3c(=O)[nH]2)cn1` [Compound 13, 2-(5-methylpyrazin-2-yl)-6-[3-(4-pyridyl)propoxy]-3H-quinazolin-4-one dihydrochloride] was tested. Which EC50 did it give?
A: Its EC50 is 1000 to 10000 nM.

Q: Which EC50 does the source give for `O=c1[nH]c(-c2cc(C(F)(F)F)c(Cl)cn2)nc2ccc(OCCCc3ccncc3)cc12` [Compound 14, 2-[5-chloro-4-(trifluoromethyl)-2-pyridyl]-6-[3-(4-pyridyl)propoxy]-3H-quinazolin-4-one hydrochloride] here?
A: Its EC50 is 1000 to 10000 nM.

Q: `O=c1[nH]c(-c2cc(Cl)ccn2)nc2ccc(OCCCc3ccncc3)cc12` [Compound 15, 2-(4-chloro-2-pyridyl)-6-[3-(4-pyridyl)propoxy]-3H-quinazolin-4-one hydrochloride] was tested. Which EC50 did it give?
A: Its EC50 is 100 to 1000 nM and < 1000 nM.

Q: For `CCc1ccnc(-c2nc3ccc(OCCCc4ccncc4)cc3c(=O)[nH]2)c1` [Compound 16, 2-(4-ethyl-2-pyridyl)-6-[3-(4-pyridyl)propoxy]-3H-quinazolin-4-one dihydrochloride], which EC50 is on record?
A: Its EC50 is 1000 to 10000 nM.

Q: With `O=c1[nH]c(-c2cccc(C(F)(F)F)n2)nc2ccc(OCCCc3ccncc3)cc12` [Compound 17, 6-[3-(4-pyridyl)propoxy]-2-[6-(trifluoromethyl)-2-pyridyl]-3H-quinazolin-4-one hydrochloride] as the compound, how does the EC50 read?
A: The EC50 was at most 100 nM.

Q: How did the EC50 turn out when `O=c1[nH]c(-c2cc(Br)ccn2)nc2ccc(OCCCc3ccncc3)cc12` [Compound 18, 2-(4-bromo-2-pyridyl)-6-[3-(4-pyridyl)propoxy]-3H-quinazolin-4-one] was run?
A: Its EC50 is 100 to 1000 nM.

Q: For `O=c1[nH]c(-c2cc(C3CC3)ccn2)nc2ccc(OCCCc3ccncc3)cc12` [Compound 19, 2-(4-cyclopropyl-2-pyridyl)-6-[3-(4-pyridyl)propoxy]-3H-quinazolin-4-one dihydrochioride], which EC50 is on record?
A: Its EC50 is 100 to 1000 nM.

Q: For `Cc1nc(-c2nc3ccc(OCCCc4ccncc4)cc3c(=O)[nH]2)co1` [Compound 22, 2-(2-Methyl-oxazol-4-yl)-6-(3-pyridin-4-yl-propoxy)-3H-quinazolin-4-one hydrochloride], which EC50 is on record?
A: The EC50 was 1000 to 10000 nM.

Q: How did the EC50 turn out when `O=c1[nH]c(-c2cc3sccc3cn2)nc2ccc(OCCc3cccnc3)cc12` [Compound 23, 6-(2-Pyridin-3-yl-ethoxy)-2-thieno[3,2-c]pyridin-6-yl-3H-quinazolin-4-one hydrochloride] was run?
A: The EC50 was 100 to 1000 nM.

Q: With `O=c1[nH]c(-c2cc3sccc3cn2)nc2ccc(OCc3ccc(Br)cc3)cc12` [Compound 24, 6-(4-Bromo-benzyloxy)-2-thieno[3,2-c]pyridin-6-yl-3H-quinazolin-4-one] as the compound, how does the EC50 read?
A: Its EC50 is over 10000 nM.

Q: How did the EC50 turn out when `O=c1[nH]c(-c2cc3cccn3cn2)nc2ccc(OC3CN(c4ccncn4)C3)cc12` [Compound 27, 6-(1-Pyrimidin-4-yl-azetidin-3-yloxy)-2-pyrrolo[1,2-c]pyrimidin-3-yl-3H-quinazolin-4-one] was run?
A: The EC50 was over 10000 nM.

Q: For `CCC(=O)N1CC(Oc2ccc3nc(-c4cc5ccsc5cn4)[nH]c(=O)c3c2)C1` [Compound 30, 6-(1-Propionyl-azetidin-3-yloxy)-2-thieno[2,3-c]pyridin-5-yl-3H-quinazolin-4-one], which EC50 is on record?
A: Its EC50 is 100 to 1000 nM.

Q: Which EC50 does the source give for `CCC(=O)N1CCC(Oc2ccc3nc(-c4cc5sccc5cn4)[nH]c(=O)c3c2)CC1` [Compound 32, 6-(1-Propionyl-piperidin-4-yloxy)-2-thieno[3,2-c]pyridin-6-yl-3H-quinazolin-4-one] here?
A: The EC50 was 100 to 1000 nM.

Q: Which EC50 does the source give for `O=c1[nH]c(-c2cc3cccn3cn2)nc2ccc(OCCN3CCOCC3)cc12` [Compound 33, 6-(2-Morpholin-4-yl-ethoxy)-2-pyrrolo[1,2-c]pyrimidin-3-yl-3H-quinazolin-4-one hydrochloride] here?
A: The EC50 was over 10000 nM.

Q: How did the EC50 turn out when `CC(C)(C)OC(=O)N1CCC(Oc2ccc3nc(-c4ccccn4)[nH]c(=O)c3c2)CC1` [Compound 39, 4-(4-Oxo-2-pyridin-2-yl-3,4-dihydro-quinazolin-6-yloxy)-piperidine-1-carboxylic acid tert-butyl ester] was run?
A: The EC50 was 1000 to 10000 nM.

Q: How did the EC50 turn out when `CC(=O)N1CCC(Oc2ccc3nc(-c4ccccn4)[nH]c(=O)c3c2)CC1` [Compound 41, 6-(1-Acetyl-piperidin-4-yloxy)-2-pyridin-2-yl-3H-quinazolin-4-one] was run?
A: The EC50 was over 10000 nM.

Q: `CC(=O)N1CCC(COc2ccc3nc(-c4cc(C(F)(F)F)ccn4)[nH]c(=O)c3c2)CC1` [Compound 44, 6-(1-Acetyl-piperidin-4-ylmethoxy)-2-(4-trifluoromethyl-pyridin-2-yl)-3H-quinazolin-4-one] was tested. Which EC50 did it give?
A: Its EC50 is 100 to 1000 nM.

Q: `CC(=O)N1CCC(Oc2ccc3nc(-c4cc5ccsc5cn4)[nH]c(=O)c3c2)C1` (centres unmarked) [Compound 51, 6-(1-Acetyl-pyrrolidin-3-yloxy)-2-thieno[2,3-c]pyridin-5-yl-3H-quinazolin-4-one] was tested. Which EC50 did it give?
A: The EC50 was 100 to 1000 nM.

Q: For `CCC(=O)N1CCN(c2ccc3nc(-c4cc(C(F)(F)F)ccn4)[nH]c(=O)c3c2)CC1` [Compound 54, 6-(4-Propionyl-piperazin-1-yl)-2-(4-trifluoromethyl-pyridin-2-yl)-3H-quinazolin-4-one], which EC50 is on record?
A: Its EC50 is 1000 to 10000 nM.

Q: Which EC50 does the source give for `CC(=O)N1CCC(c2ccc3nc(-c4cc5ccsc5cn4)[nH]c(=O)c3c2)CC1` [Compound 57, 6-(1-acetyl-piperidin-4-yl)-2-thieno[2,3-c]pyridin-5-yl-3H-quinazolin-4-one] here?
A: Its EC50 is 100 to 1000 nM.

Same assay, conditions: up to 100 μM

Q: How did the “PAM activity on mGluR4” value turn out when `Cl.O=c1[nH]c(-c2cccnc2)nc2ccc(OCCCc3ccncc3)cc12` [Compound 6, 2-Pyridin-3-yl-6-(3-pyridin-4-yl-propoxy)-3H-quinazolin-4-one hydrochloride] was run?
A: Its value is “no PAM activity”.

Q: `Cl.O=c1[nH]c(-c2cccc(Cl)c2)nc2ccc(OCCCc3ccncc3)cc12` [Compound 20, 2-(3-chlorophenyl)-6-[3-(4-pyridyl)propoxy]-3H-quinazolin-4-one hydrochloride] was tested. Which “PAM activity on mGluR4” value did it give?
A: The value was “no PAM activity”.

Q: With `O=c1[nH]c(-c2cccc(C(F)(F)F)c2)nc2ccc(OCCCc3ccncc3)cc12` [Compound 21, 6-[3-(4-pyridyl)propoxy]-2-[3-(trifluoromethyl)phenyl]-3H-quinazolin-4-one hydrochloride] as the compound, how does the “PAM activity on mGluR4” value read?
A: Its value is “no PAM activity”.

Q: How did the “PAM activity on mGluR4” value turn out when `Cn1c(-c2cc3sccc3cn2)nc2ccc(OCCCc3ccncc3)cc2c1=O` [Compound 38, 3-Methyl-6-(3-pyridin-4-yl-propoxy)-2-thieno[3,2-c]pyridin-6-yl-quinazolin-4-one] was run?
A: The value was “no PAM activity”.
